The text below walks through data of publication PMC3907678 (Tumour Biology, 2013).

pKi: −log10 of the molar value.

For this assay, the target named is PDE1 (calmodulin-dependent 3,5-cyclic-nucleotide phosphodiesterase). Description: CaM-dependent PDE1 cAMP hydrolysis assay, Lineweaver-Burk and Dixon plots. The class given is biochemical.

Take `C[C@@H]1CC[C@H]2[C@@H](C)C(=O)O[C@@H]3O[C@@]4(C)CC[C@@H]1[C@]32OO4` [artemisinin]: the pKi is 5.00.
